Several values for one entry are separate records, joined by “and”; a condition that tells them apart may be missing. Equal values may be shown once. Activity calls are given as the source filed them. No rule for the calls is given here.
System: rodent lifetime carcinogenesis bioassay, tumor incidence TD50
Assay: chronic cancer bioassays in animals – CPDB, compiled studies (AID 1745844)

**Q.** What does the source list for `ClC=C(Cl)Cl`?
**A.** carcinogen call (hamster, strain Syrian Golden, females, inhaled, site: any site (literature study), lesion: benign tumor, dosed 78 weeks, study length 130 weeks): negative (inactive); TD50 (hamster, strain Syrian Golden, females, inhaled, site: any site (literature study), lesion: malignant tumor, dosed 78 weeks, study length 130 weeks): 9220 mg/kg/day (inactive); carcinogen call (hamster, strain Syrian Golden, females, inhaled, site: liver, lesion: several types, types named in the paper, dosed 78 weeks, study length 130 weeks): negative (inactive); TD50 (hamster, strain Syrian Golden, males, inhaled, site: any site (literature study), lesion: benign tumor, dosed 78 weeks, study length 130 weeks): 5640 mg/kg/day (inactive); carcinogen call (hamster, strain Syrian Golden, males, inhaled, site: any site (literature study), lesion: malignant tumor, dosed 78 weeks, study length 130 weeks): negative (inactive); carcinogen call (hamster, strain Syrian Golden, males, inhaled, site: liver, lesion: several types, types named in the paper, dosed 78 weeks, study length 130 weeks): negative (inactive); TD50 (mouse, strain B6C3F1, females, by gavage, site: any site (literature study), lesion: several types, types named in the paper, dosed 78 weeks, study length 90 weeks): 1850 mg/kg/day; TD50 (mouse, strain B6C3F1, females, by gavage, site: any site (literature study), lesion: several types, types named in the paper, dosed 103 weeks, study length 105 weeks): 359 mg/kg/day; TD50 (mouse, strain B6C3F1, females, by gavage, site: liver + multiple organs + spleen, lesion: malignant lymphoma, histiocytic type + malignant lymphoma, mixed type + malignant lymphoma, lymphocytic type + malignant lymph, dosed 103 weeks, study length 105 weeks): 1350 mg/kg/day and 1470 mg/kg/day; TD50 (mouse, strain B6C3F1, females, by gavage, site: liver, lesion: hepatocellular adenoma + hepatocellular carcinoma + neoplastic nodule, dosed 78 weeks, study length 90 weeks): 1930 mg/kg/day; TD50 (mouse, strain B6C3F1, females, by gavage, site: liver, lesion: hepatocellular adenoma + hepatocellular carcinoma + neoplastic nodule, dosed 103 weeks, study length 105 weeks): 411 mg/kg/day; TD50 (mouse, strain B6C3F1, females, by gavage, site: liver, lesion: hepatocellular adenoma + hepatocellular carcinoma, dosed 103 weeks, study length 105 weeks): 411 mg/kg/day; TD50 (mouse, strain B6C3F1, females, by gavage, site: liver, lesion: hepatocellular adenoma, dosed 103 weeks, study length 105 weeks): 579 mg/kg/day; TD50 (mouse, strain B6C3F1, females, by gavage, site: liver, lesion: hepatocellular carcinoma, dosed 78 weeks, study length 90 weeks): 1930 mg/kg/day; TD50 (mouse, strain B6C3F1, females, by gavage, site: liver, lesion: hepatocellular carcinoma, dosed 103 weeks, study length 105 weeks): 673 mg/kg/day; TD50 (mouse, strain B6C3F1, females, by gavage, site: lung, lesion: alveolar/bronchiolar adenoma + alveolar/bronchiolar carcinoma, dosed 78 weeks, study length 90 weeks): 4350 mg/kg/day; TD50 (mouse, strain B6C3F1, females, by gavage, site: lung, lesion: alveolar/bronchiolar adenoma + alveolar/bronchiolar carcinoma, dosed 103 weeks, study length 105 weeks): 3850 mg/kg/day; TD50 (mouse, strain B6C3F1, females, by gavage, site: lung, lesion: alveolar/bronchiolar adenoma, dosed 103 weeks, study length 105 weeks): 2780 mg/kg/day; TD50 (mouse, strain B6C3F1, females, by gavage, site: multiple organs, lesion: malignant lymphoma, lymphocytic type, dosed 103 weeks, study length 105 weeks): 4880 mg/kg/day; TD50 (mouse, strain B6C3F1, females, inhaled, site: any site (literature study), lesion: malignant tumor, dosed 78 weeks, study length 154 weeks): 2080 mg/kg/day; TD50 (mouse, strain B6C3F1, females, inhaled, site: any site (literature study), lesion: several types, types named in the paper, dosed 78 weeks, study length 154 weeks): 1320 mg/kg/day; TD50 (mouse, strain B6C3F1, females, inhaled, site: liver, lesion: hepatoma, dosed 78 weeks, study length 154 weeks): 13600 mg/kg/day; TD50 (mouse, strain B6C3F1, females, inhaled, site: lung, lesion: one or several types, types not named, dosed 78 weeks, study length 154 weeks): 6320 mg/kg/day; TD50 (mouse, strain B6C3F1, females, inhaled, site: thyroid gland, lesion: adenoma, dosed 78 weeks, study length 154 weeks): 2.23e+06 mg/kg/day; TD50 (mouse, strain B6C3F1, females, inhaled, site: thyroid gland, lesion: carcinoma, dosed 78 weeks, study length 154 weeks): 131000 mg/kg/day; TD50 (mouse, strain B6C3F1, males, by gavage, site: Harderian gland, lesion: adenoma, NOS + acinar-cell adenoma + papillary adenoma, dosed 103 weeks, study length 105 weeks): 3830 mg/kg/day; TD50 (mouse, strain B6C3F1, males, by gavage, site: any site (literature study), lesion: several types, types named in the paper, dosed 78 weeks, study length 90 weeks): 553 mg/kg/day; TD50 (mouse, strain B6C3F1, males, by gavage, site: any site (literature study), lesion: several types, types named in the paper, dosed 103 weeks, study length 105 weeks): 332 mg/kg/day; TD50 (mouse, strain B6C3F1, males, by gavage, site: liver, lesion: hepatocellular adenoma + hepatocellular carcinoma + neoplastic nodule, dosed 78 weeks, study length 90 weeks): 421 mg/kg/day; TD50 (mouse, strain B6C3F1, males, by gavage, site: liver, lesion: hepatocellular adenoma + hepatocellular carcinoma + neoplastic nodule, dosed 103 weeks, study length 105 weeks): 239 mg/kg/day; TD50 (mouse, strain B6C3F1, males, by gavage, site: liver, lesion: hepatocellular adenoma + hepatocellular carcinoma, dosed 103 weeks, study length 105 weeks): 239 mg/kg/day; TD50 (mouse, strain B6C3F1, males, by gavage, site: liver, lesion: hepatocellular adenoma, dosed 103 weeks, study length 105 weeks): 855 mg/kg/day; TD50 (mouse, strain B6C3F1, males, by gavage, site: liver, lesion: hepatocellular carcinoma, dosed 78 weeks, study length 90 weeks): 421 mg/kg/day; TD50 (mouse, strain B6C3F1, males, by gavage, site: liver, lesion: hepatocellular carcinoma, dosed 103 weeks, study length 105 weeks): 294 mg/kg/day; TD50 (mouse, strain B6C3F1, males, by gavage, site: lung, lesion: alveolar/bronchiolar adenoma + alveolar/bronchiolar carcinoma, dosed 78 weeks, study length 90 weeks): 7160 mg/kg/day; TD50 (mouse, strain B6C3F1, males, by gavage, site: lung, lesion: alveolar/bronchiolar adenoma + alveolar/bronchiolar carcinoma, dosed 103 weeks, study length 105 weeks): 4250 mg/kg/day; TD50 (mouse, strain B6C3F1, males, in drinking water, site: liver, lesion: hepatocellular adenoma, dosed 61 weeks, study length 61 weeks): 502 mg/kg/day; TD50 (mouse, strain B6C3F1, males, in drinking water, site: liver, lesion: hepatocellular carcinoma, dosed 61 weeks, study length 61 weeks): 16 mg/kg/day; TD50 (mouse, strain B6C3F1, males, inhaled, site: liver, lesion: angiosarcoma, dosed 78 weeks, study length 135 weeks): 77000 mg/kg/day; TD50 (mouse, strain B6C3F1, males, inhaled, site: liver, lesion: hepatoma, dosed 78 weeks, study length 135 weeks): 4530 mg/kg/day; TD50 (mouse, strain B6C3F1, males, inhaled, site: liver, lesion: hepatoma, dosed 78 weeks, study length 154 weeks): 5030 mg/kg/day; TD50 (mouse, strain Ha/ICR, females, by gavage, site: forestomach, lesion: one or several types, types not named, dosed 88 weeks, study length 88 weeks): 41.3 mg/kg/day (inactive); TD50 (mouse, strain Ha/ICR, males, by gavage, site: forestomach, lesion: one or several types, types not named, dosed 88 weeks, study length 88 weeks): 16.9 mg/kg/day (inactive); TD50 (mouse, strain Han:NMRI, females, inhaled, site: all sites, lesion: malignant lymphoma, dosed 78 weeks, study length 130 weeks): 846 mg/kg/day; carcinogen call (mouse, strain Han:NMRI, females, inhaled, site: any site (literature study), lesion: benign tumor, dosed 78 weeks, study length 130 weeks): negative (inactive); TD50 (mouse, strain Han:NMRI, females, inhaled, site: any site (literature study), lesion: malignant tumor, dosed 78 weeks, study length 130 weeks): 573 mg/kg/day (inactive); carcinogen call (mouse, strain Han:NMRI, females, inhaled, site: liver, lesion: several types, types named in the paper, dosed 78 weeks, study length 130 weeks): negative (inactive); carcinogen call (mouse, strain Han:NMRI, females, inhaled, site: lung, lesion: alveolar/bronchiolar adenoma, dosed 78 weeks, study length 130 weeks): negative (inactive); carcinogen call (mouse, strain Han:NMRI, females, inhaled, site: lung, lesion: alveolar/bronchiolar carcinoma, dosed 78 weeks, study length 130 weeks): negative (inactive); carcinogen call (mouse, strain Han:NMRI, males, inhaled, site: all sites, lesion: malignant lymphoma, dosed 78 weeks, study length 130 weeks): negative (inactive); carcinogen call (mouse, strain Han:NMRI, males, inhaled, site: any site (literature study), lesion: benign tumor, dosed 78 weeks, study length 130 weeks): negative (inactive); carcinogen call (mouse, strain Han:NMRI, males, inhaled, site: any site (literature study), lesion: malignant tumor, dosed 78 weeks, study length 130 weeks): negative (inactive); carcinogen call (mouse, strain Han:NMRI, males, inhaled, site: liver, lesion: hepatocellular adenoma, dosed 78 weeks, study length 130 weeks): negative (inactive); carcinogen call (mouse, strain Han:NMRI, males, inhaled, site: liver, lesion: hepatocellular carcinoma, dosed 78 weeks, study length 130 weeks): negative (inactive); carcinogen call (mouse, strain Han:NMRI, males, inhaled, site: liver, lesion: hepatoma, benign, dosed 78 weeks, study length 130 weeks): negative (inactive); carcinogen call (mouse, strain Han:NMRI, males, inhaled, site: lung, lesion: alveolar/bronchiolar adenoma, dosed 78 weeks, study length 130 weeks): negative (inactive); carcinogen call (mouse, strain Han:NMRI, males, inhaled, site: lung, lesion: malignant tumor, dosed 78 weeks, study length 130 weeks): negative (inactive); TD50 (mouse, strain ICR, females, inhaled, site: any site (literature study), lesion: several types, types named in the paper, dosed 104 weeks, study length 107 weeks): 1900 mg/kg/day; TD50 (mouse, strain ICR, females, inhaled, site: liver, lesion: adenoma, dosed 104 weeks, study length 107 weeks): 42300 mg/kg/day; TD50 (mouse, strain ICR, females, inhaled, site: lung, lesion: adenocarcinoma, dosed 104 weeks, study length 107 weeks): 3380 mg/kg/day; TD50 (mouse, strain ICR, females, inhaled, site: lung, lesion: several types, types named in the paper, dosed 104 weeks, study length 107 weeks): 3370 mg/kg/day; TD50 (mouse, strain Swiss, females, inhaled, site: any site (literature study), lesion: malignant tumor, dosed 78 weeks, study length 145 weeks): 9840 mg/kg/day; TD50 (mouse, strain Swiss, females, inhaled, site: any site (literature study), lesion: several types, types named in the paper, dosed 78 weeks, study length 145 weeks): 9190 mg/kg/day; TD50 (mouse, strain Swiss, females, inhaled, site: liver, lesion: hepatoma, dosed 78 weeks, study length 145 weeks): 121000 mg/kg/day; TD50 (mouse, strain Swiss, females, inhaled, site: lung, lesion: one or several types, types not named, dosed 78 weeks, study length 145 weeks): 35400 mg/kg/day; TD50 (mouse, strain Swiss, males, inhaled, site: any site (literature study), lesion: malignant tumor, dosed 78 weeks, study length 145 weeks): 6320 mg/kg/day

Source: PubChem BioAssay AID1745844 (Carcinogenic Potency Database (CPDB), 2022)
